According to patent publication US9226916B2, “Pyrrolidine derivatives” (HOFFMANN-LA ROCHE INC., priority 2009, dated 2016):

What follows are compounds tested against T1, recombinant human NK3 receptor (Homo sapiens, UniProt P29371) (assay: [3H]SR142801 competition binding assay).
T1 construct: expressed in transfected cells; host or cells: HEK293 cells, transient expression; membranes
T1 sequence (P29371 1-465): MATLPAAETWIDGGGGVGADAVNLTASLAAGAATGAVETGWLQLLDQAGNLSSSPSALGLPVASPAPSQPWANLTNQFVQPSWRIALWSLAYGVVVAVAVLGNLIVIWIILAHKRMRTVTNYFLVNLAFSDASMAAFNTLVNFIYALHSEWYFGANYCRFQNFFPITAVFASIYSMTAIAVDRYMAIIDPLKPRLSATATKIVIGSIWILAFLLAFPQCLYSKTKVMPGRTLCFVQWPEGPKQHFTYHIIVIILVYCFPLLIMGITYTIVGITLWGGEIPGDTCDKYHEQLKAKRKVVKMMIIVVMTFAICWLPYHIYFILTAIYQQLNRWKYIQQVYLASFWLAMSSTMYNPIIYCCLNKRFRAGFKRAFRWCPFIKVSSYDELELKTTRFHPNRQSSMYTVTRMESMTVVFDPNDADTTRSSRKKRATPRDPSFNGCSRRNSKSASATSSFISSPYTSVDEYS
CC(=O)N1CCC(C(=O)N2C[C@@H](N(C)C(=O)Oc3ccc(F)cc3)[C@H](c3ccc(Cl)cc3)C2)CC1 [Example 246, [(3S,4R)-1-(1-Acetyl-piperidine-4-carbonyl)-4-(4-chloro-phenyl)-pyrrolidin-3-yl]-methyl-carbamic acid 4-fluoro-phenyl ester] showed a Ki of 2.3 nM. Work on COC1CCC(OC(=O)N(C)[C@@H]2CN(C(=O)C3CCN(c4ccc(C#N)cn4)CC3)C[C@H]2c2ccc(Cl)cc2)CC1 (stereo partly drawn) [Example 238, [(3S,4R)-4-(4-Chloro-phenyl)-1-(5′-cyano-3,4,5,6-tetrahydro-2H-[1,2′]bipyridinyl-4-carbonyl)-pyrrolidin-3-yl]-methyl-carbamic acid 4-methoxy-cyclohexyl ester] yielded a Ki of 48 nM. For CN(C(=O)Oc1ccc(F)cc1)[C@@H]1CN(C(=O)C2CCN(C(=O)C3(C)COC3)CC2)C[C@H]1c1ccc(F)cc1 [Example 286, {(3S,4R)-4-(4-Fluoro-phenyl)-1-[1-(3-methyl-oxetane-3-carbonyl)-piperidine-4-carbonyl]-pyrrolidin-3-yl}-methyl-carbamic acid 4-fluoro-phenyl ester], the Ki was 25.4 nM. CN(C(=O)Oc1ccc(F)cc1)[C@@H]1CN(C(=O)C2CCN(C(=O)OC(C)(C)C)C2)C[C@H]1c1ccc(Cl)cc1 (stereo partly drawn) [Example 151, 3-{(3R,4S)-3-(4-Chloro-phenyl)-4-[(4-fluoro-phenoxycarbonyl)-methyl-amino]-pyrrolidine-1-carbonyl}-pyrrolidine-1-carboxylic acid tert-butyl ester] showed a Ki of 18.2 nM. Work on CN(C(=O)Oc1ccc(F)cc1)[C@@H]1CN(C(=O)C2CCN(c3ccc(F)cn3)CC2)C[C@H]1c1ccc(Cl)c(F)c1 [Example 311, [(3S,4R)-4-(4-Chloro-3-fluoro-phenyl)-1-(5′-fluoro-3,4,5,6-tetrahydro-2H-[1,2′]bipyridinyl-4-carbonyl)-pyrrolidin-3-yl]-methyl-carbamic acid 4-fluoro-phenyl ester] yielded a Ki of 0.9 nM. CN(C(=O)Oc1ccc(F)cc1)[C@@H]1CN(C(=O)C2CCN(c3ccc(F)cn3)CC2)C[C@H]1c1ccc(F)c(Cl)c1 [Example 315, [(3S,4R)-4-(3-Chloro-4-fluoro-phenyl)-1-(5′-fluoro-3,4,5,6-tetrahydro-2H-[1,2′]bipyridinyl-4-carbonyl)-pyrrolidin-3-yl]-methyl-carbamic acid 4-fluoro-phenyl ester] was tested, and the Ki was 1.7 nM. Work on CC(=O)c1ccc(N2CCC(C(=O)N3C[C@@H](N(C)C(=O)Oc4ccc(F)cc4)[C@H](c4ccc(Cl)cc4)C3)CC2)nc1 [Example 182, [(3S,4R)-1-(5′-Acetyl-3,4,5,6-tetrahydro-2H-[1,2′]bipyridinyl-4-carbonyl)-4-(4-chloro-phenyl)-pyrrolidin-3-yl]-methyl-carbamic acid 4-fluoro-phenyl ester] yielded a Ki of 2 nM. In the case of CN(C(=O)Oc1ccc(F)cc1)[C@@H]1CN(C(=O)C2CCN(C(=O)C3CC3)C2)C[C@H]1c1ccc(Cl)cc1 (stereo partly drawn) [Example 171, [(3S,4R)-4-(4-Chloro-phenyl)-1-(1-cyclopropanecarbonyl-pyrrolidine-3-carbonyl)-pyrrolidin-3-yl]-methyl-carbamic acid 4-fluoro-phenyl ester], the Ki is reported as 9.5 nM. In the case of Cc1ccc(N2CCC(C(=O)N3C[C@@H](N(C)C(=O)Oc4ccc(F)cc4)[C@H](c4ccc(Cl)cc4)C3)CC2)nc1 [Example 194, [(3S,4R)-4-(4-Chloro-phenyl)-1-(5′-methyl-3,4,5,6-tetrahydro-2H-[1,2′]bipyridinyl-4-carbonyl)-pyrrolidin-3-yl]-methyl-carbamic acid 4-fluoro-phenyl ester], the Ki is reported as 3.5 nM. In the case of CN(C(=O)Oc1ccccc1)[C@H]1CN(C(=O)C2CCN(C(=O)C3(C)CC3)CC2)C[C@@H]1c1ccc(Cl)c(Cl)c1 (racemic) [Example 13, rac-{(3R,4S)-4-(3,4-Dichloro-phenyl)-1-[1-(1-methyl-cyclopropanecarbonyl)-piperidine-4-carbonyl]-pyrrolidin-3-yl}-methyl-carbamic acid phenyl ester], the Ki is reported as 2 nM. In the case of CCC(=O)N1CCC(C(=O)N2C[C@@H](N(C)C(=O)Oc3ccc(F)cc3)[C@H](c3ccc(Cl)cc3)C2)C1 (stereo partly drawn) [Example 170, [(3S,4R)-4-(4-Chloro-phenyl)-1-(1-propionyl-pyrrolidine-3-carbonyl)-pyrrolidin-3-yl]-methyl-carbamic acid 4-fluoro-phenyl ester], the Ki is reported as 8.3 nM. With CN(C(=O)Oc1ccc(F)cc1)[C@@H]1CN(C(=O)C2CCN(c3cc(C#N)ccn3)CC2)C[C@H]1c1ccc(Cl)cc1 [Example 185, [(3S,4R)-4-(4-Chloro-phenyl)-1-(4′-cyano-3,4,5,6-tetrahydro-2H-[1,2′]bipyridinyl-4-carbonyl)-pyrrolidin-3-yl]-methyl-carbamic acid 4-fluoro-phenyl ester] the Ki was 3 nM. Compound CN(C(=O)Oc1ccc(F)cc1)[C@@H]1CN(C(=O)C2CCN(C(=O)C3(C)CC3)CC2)C[C@H]1c1ccc(Cl)cc1 [Example 39, {(3S,4R)-4-(4-Chloro-phenyl)-1-[1-(1-methyl-cyclopropanecarbonyl)-piperidine-4-carbonyl]-pyrrolidin-3-yl}-methyl-carbamic acid 4-fluoro-phenyl ester] has a Ki of 11 nM. Compound CC(=O)N1CCC(C(=O)N2C[C@@H](N(C)C(=O)Oc3ccc(F)cc3)[C@H](c3ccc(Cl)c(Cl)c3)C2)CC1 [Example 283, [(3S,4R)-1-(1-Acetyl-piperidine-4-carbonyl)-4-(3,4-dichloro-phenyl)-pyrrolidin-3-yl]-methyl-carbamic acid 4-fluoro-phenyl ester] has a Ki of 0.7 nM. CN(C(=O)Oc1ccc(F)cc1)[C@@H]1CN(C(=O)C2CCN(C(=O)C3(C(F)(F)F)CCC3)CC2)C[C@H]1c1ccc(Cl)cc1 [Example 252, {(3S,4R)-4-(4-Chloro-phenyl)-1-[1-(1-trifluoromethyl-cyclobutanecarbonyl)-piperidine-4-carbonyl]-pyrrolidin-3-yl}-methyl-carbamic acid 4-fluoro-phenyl ester] showed a Ki of 2.7 nM. COC1CC(C(=O)N2C[C@@H](N(C)C(=O)Oc3ccc(F)cc3)[C@H](c3ccc(Cl)cc3)C2)C1 (stereo partly drawn) [Example 149, [(3S,4R)-4-(4-Chloro-phenyl)-1-(3-methoxy-cyclobutanecarbonyl)-pyrrolidin-3-yl]-methyl-carbamic acid 4-fluoro-phenyl ester] gave a Ki of 90.8 nM. Cc1cc([C@H]2CN(C(=O)C3CCN(C(=O)C4(C)CC4)CC3)C[C@@H]2N(C)C(=O)Oc2ccc(F)cc2)ccc1Cl (racemic) [Example 71, rac-{(3R,4S)-4-(4-Chloro-3-methyl-phenyl)-1-[1-(1-methyl-cyclopropanecarbonyl)-piperidine-4-carbonyl]-pyrrolidin-3-yl}-methyl-carbamic acid 4-fluoro-phenyl ester] gave a Ki of 1.8 nM. Work on CN(C(=O)Oc1cccc(Cl)n1)[C@@H]1CN(C(=O)C2CCN(C(=O)C3(C)CC3)CC2)C[C@H]1c1ccc(Cl)c(Cl)c1 [Example 300, {(3S,4R)-4-(3,4-Dichloro-phenyl)-1-[1-(1-methyl-cyclopropanecarbonyl)-piperidine-4-carbonyl]-pyrrolidin-3-yl}-methyl-carbamic acid 6-chloro-pyridin-2-yl ester] yielded a Ki of 2.6 nM. For CN(C(=O)Oc1ccccc1)[C@H]1CN(C(=O)C2CCN(CC3CC3)CC2)C[C@@H]1c1ccc(Cl)c(Cl)c1 (racemic) [Example 7, rac-[(3R,4S)-1-(1-Cyclopropylmethyl-piperidine-4-carbonyl)-4-(3,4-dichloro-phenyl)-pyrrolidin-3-yl]-methyl-carbamic acid phenyl ester], the Ki was 9.6 nM. In the case of CN(C(=O)Oc1ccc(F)cc1)[C@@H]1CN(C(=O)C2CCN(C(=O)[C@@H]3CC(=O)N3)CC2)C[C@H]1c1ccc(Cl)c(Cl)c1 [Example 292, {(3S,4R)-4-(3,4-Dichloro-phenyl)-1-[1-((S)-4-oxo-azetidine-2-carbonyl)-piperidine-4-carbonyl]-pyrrolidin-3-yl}-methyl-carbamic acid 4-fluoro-phenyl ester], the Ki is reported as 0.04 nM. For CN(C(=O)Oc1ccc(F)cc1)[C@@H]1CN(C(=O)C2CCN(c3ccc(Cl)cn3)CC2)C[C@H]1c1ccc(Cl)cc1 [Example 199, [(3S,4R)-4-(4-Chloro-phenyl)-1-(5′-chloro-3,4,5,6-tetrahydro-2H-[1,2′]bipyridinyl-4-carbonyl)-pyrrolidin-3-yl]-methyl-carbamic acid 4-fluoro-phenyl ester], the Ki was 0.9 nM. CN(C(=O)Oc1ccc(F)cc1)[C@@H]1CN(C(=O)C2CCN(C(=O)C3(C#N)CC3)CC2)C[C@H]1c1ccc(F)cc1 [Example 288, [(3S,4R)-1-[1-(1-Cyano-cyclopropanecarbonyl)-piperidine-4-carbonyl]-4-(4-fluoro-phenyl)-pyrrolidin-3-yl]-methyl-carbamic acid 4-fluoro-phenyl ester] showed a Ki of 26.6 nM. For CN(C(=O)Oc1ccc(F)cc1)[C@@H]1CN(C(=O)C2CCNCC2)C[C@H]1c1ccc(Cl)cc1 [Example 135, [(3S,4R)-4-(4-Chloro-phenyl)-1-(piperidine-4-carbonyl)-pyrrolidin-3-yl]-methyl-carbamic acid 4-fluoro-phenyl ester], the Ki was 40.3 nM. For CN(C(=O)Oc1ccc(F)cc1)[C@@H]1CN(C(=O)C2CCN(C(=O)C3(C(F)(F)F)CC3)CC2)C[C@H]1c1ccc(Cl)cc1 [Example 255, {(3S,4R)-4-(4-Chloro-phenyl)-1-[1-(1-trifluoromethyl-cyclopropanecarbonyl)-piperidine-4-carbonyl]-pyrrolidin-3-yl}-methyl-carbamic acid 4-fluoro-phenyl ester], the Ki was 2.5 nM.
